Laboratory results as given in US20240350464A1, “METHODS OF TREATING NEUROLOGICAL, MUSCULAR, AND PROLIFERATIVE DISORDERS” (Elixira Pharma AG, priority 2023, published 2024).

What was measured:
Assay type in all cases: in vivo, Caenorhabditis elegans
N2 wild type worms [1] = assay: Microfluidic growth monitoring (worm size, area); conditions: for effect on the worm's size (in words): vs negative control; for Variation (%) of worm area AUC: vs negative control DMSO 1%
Experimental: (§1) For the purpose of this study, the two compounds and four combinations of the two compounds were tested on a microfluidic platform. Worms were injected at the L4 larval stage, confined in dedicated microfluidic chambers, and continuously subjected to the presence of the two compounds, alone or in combination, from the L4 larval stage to the end of the experiment (corresponding to the day when the worm is dead). Acquisition of short sequences of videos for each microfluidic chamber containing worms were executed automatically every six (6) hours during the duration of the assay. The measurement of the motility, as well as the worm size to address compound toxicity (1) and the reproduction assessing longevity (2), were performed on the acquired sequences of videos by using an algorithm (3,4). Dead/live worms were identified automatically, based on the motility parameters. Each condition was tested in four technical replicates on different microfluidic cartridges. The experiment was performed once.
The proposed study was conducted according to the design and timeline depicted in FIG. 1. N2 wild-type C. elegans were grown on solid nematode growth medium (NGM) agar plates until the adult stage and harvested in complete S-Medium. Eggs from the adult population were hatched overnight in S-Medium and the resulting L1 progeny was recovered with a dedicated filter. L1 larvae were then collected through filtering in S-medium, seeded on NGM agar plates and grown for 48 hours (h) at 20° C. After 48 h, the worm population had reached the L4 larval stage. […]
Five time-resolved phenotypic readouts were extracted during the assays, including: • Worm size (area): this parameter was measured to evaluate the potential effects of the tested compound on growth retardation or larval arrest phenotype (7). • Sexual maturity: this parameter was measured to evaluate the potential effects of the tested compound on the timing required by a worm to reach the sexual maturity, determined by the observation of the first embryo (i.e., egg) produced in each microfluidic chamber. This phenotype was also indicative for a general sterility phenotype (i.e., no egg produced) (7). • Worm fertility: this parameter was measured to evaluate the potential effects of the tested compound on the average number of eggs produced by each worm during the reproductive span, calculated via the images acquired during the assay (7). • Reproductive span: this parameter was measured to evaluate the potential effects of the tested compound on the duration in which the worms have reproductive ability, determined by the observation of the last embryo produced in each microfluidic chamber. • Worm longevity: this parameter was measured to evaluate the potential effects of the tested compound on the worm's survival. […]

N2 wild type worms [2] = assay: Microfluidic reproduction monitoring (egg laying start/end, reproductive span, eggs laid); conditions: for Eggs laid (#): average number of eggs laid per worm within the timespan of egg laying; for Eggs laid (#) / Egg laying end / Reproductive span: concentrations per Table 2; for Egg laying start: time from injection of L4 larvae until first egg, continuous exposure, concentrations per Table 2 (Cpd 1 100 μM, Cpd 2 25 mM); for Egg laying start / Egg laying end / Reproductive span: mean; for Egg laying end: time from injection of L4 larvae until last egg; for Reproductive span: timespan of egg laying; for Variation (%) of egg laying end (time of the last egg laid) / Variation (%) of egg laying start / Variation (%) of eggs laid / Variation (%) of reproductive span (timespan of egg laying): vs negative control DMSO 1%
Experimental: as §1
(§2) The proposed study was conducted according to the design and timeline depicted in FIG. 1. N2 wild-type C. elegans were grown on solid nematode growth medium (NGM) agar plates until the adult stage and harvested in complete S-Medium. Eggs from the adult population were hatched overnight in S-Medium and the resulting L1 progeny was recovered with a dedicated filter. L1 larvae were then collected through filtering in S-medium, seeded on NGM agar plates and grown for 48 hours (h) at 20° C. […] L4 larvae were then collected through filtering in 5 mL S-medium. 20 to 30 L4 were injected in the microfluidic chips for each condition. Worms were then continuously fed on-chip via bacterial medium, for the duration of the entire experiment. Videos of each micro-chamber were acquired after the feeding during the whole experiment, every 6 hours.
(§3) The two compounds, Compound 1 and Compound 2, were suspended in DMSO at the stock concentration of 100 mM and 2.5 M, respectively (Table 1). Compounds were then mixed with the bacterial medium at the targeted concentrations, alone or in combination (Table 2). For all tested conditions, the final vehicle (DMSO) concentration was 1%. For the negative control condition, nematodes were fed with a bacterial medium containing only the vehicle solution (DMSO 1%). All stock solutions were stored at −20° C. and dilutions were made freshly on the day of starting the on-chip experiment and then every 72 h to replace the compound/bacterial medium solutions.
Five time-resolved phenotypic readouts were extracted during the assays, including: • Worm size (area): this parameter was measured to evaluate the potential effects of the tested compound on growth retardation or larval arrest phenotype (7). • Sexual maturity: this parameter was measured to evaluate the potential effects of the tested compound on the timing required by a worm to reach the sexual maturity, determined by the observation of the first embryo (i.e., egg) produced in each microfluidic chamber.
Bar graphs represent mean+/−sem. p values were obtained by comparing the negative control (blue bars) versus the treatment via One-way ANOVA followed by Bonferroni's multiple comparisons test (p<0.05). * statistics versus the negative control (DMSO 1%).

N2 wild type worms [3] = assay: Microfluidic motility monitoring (head, midbody, tail amplitude, bending frequency, velocity); conditions: vs negative control; for overall motility: all motility parameters improved, in average: all 5 parameters
Experimental: as §1, §2, §3
Worm motility is an additional phenotypic readout, where five parameters of the motility were assessed every 6 hours from acquired videos (2 seconds long, 10 frames per second for each video). At each time point, the values recorded for dead worms were excluded. The five motility parameters monitored included (3): • the amplitude of the movement at the head • the amplitude of the movement at the middle of the worm body • the amplitude of tail movement • the worm bending frequency • the worm velocity
These motility parameters were analyzed by phases (Area Under the Curve calculation following by an 2-way ANOVA tests), as defined below: • Phase 1: from day 1 to day 5 • Phase 2: from day 6 to day 10 • Phase 3: from day 11 to day 15 • Phase 4: from day 16 to day 20

Row | SMILES | effect on the worm's size (in words) (N2 wild type worms [1]) | Variation (%) of worm area AUC (N2 wild type worms [1]) | Eggs laid (#) (N2 wild type worms [2]) | Egg laying start (N2 wild type worms [2]) [h] | Egg laying end (N2 wild type worms [2]) [h] | Reproductive span (N2 wild type worms [2]) [h] | Variation (%) of egg laying end (time of the last egg laid) (N2 wild type worms [2]) | Variation (%) of egg laying start (N2 wild type worms [2]) [%] | Variation (%) of eggs laid (N2 wild type worms [2]) [%] | Variation (%) of reproductive span (timespan of egg laying) (N2 wild type worms [2]) | overall motility: all motility parameters improved, in average (N2 wild type worms [3]) [%] | motility in Phase 1 (in words) (N2 wild type worms [3]; Phase 1 (D0 to D5)) | motility in Phase 2 (in words) (N2 wild type worms [3]; Phase 2 (D6 to D10)) | motility in Phase 3 (in words) (N2 wild type worms [3]; Phase 3 (D11 to D15)) | motility in Phase 4 (in words) (N2 wild type worms [3]; Phase 4 (D16 to D20)) | overall motility of the worms (in words) (N2 wild type worms [3]; 2-way ANOVA)
1 | CO[C@H]1C[C@@H]2CC[C@@H](C)[C@@](O)(O2)C(=O)C(=O)N2CCCC[C@H]2C(=O)O[C@H]([C@H](C)C[C@@H]2CC[C@@H](O)[C@H](OC)C2)CC(=O)[C@H](C)/C=C(\C)[C@@H](O)[C@@H](OC)C(=O)[C@H](C)C[C@H](C)/C=C/C=C/C=C/1C [Cpd 1, rapamycin] | significant improvement | +0.8% | 96.6 # | 29.59 | 144.0 | 114.4 | −3.1% | −3.2 | −32.9 | −3.1% | 14 | – | – | – | – | –
2 | CN(C)C(=N)N=C(N)N [Cpd 2, metformin] | significant decrease | −3.3% | 94.9 # | 29.63 | 152.7 | 123.1 | +2.8% | −3.1 | −34.1 | +4.3% | 22 | significant increase in almost all the motility parameters | significant increase in almost all the motility parameters | No effect on the motility | No effect on the motility | significantly increased
